Experiments:
[1] = Water solubility; format: physicochemical
Description: In vitro testing has shown that due to its poor water solubility, triclosan is released from these films only slowly over […] period, with minimal initial burst release.

[2] = Stability of gentamicin sulfate to manufacturing conditions (heat, organic solvents); format: physicochemical
Description: In one embodiment, the drug selected must be stable during the manufacturing processes required to fabricate the implant.

Molecule | water solubility [1] | thermal stability (thermally stable above) [2] | stability to organic solvents ([2]; organic solvents including DMSO)
Oc1cc(Cl)ccc1Oc1ccc(Cl)cc1Cl [triclosan, 2,4,4′-trichloro-2′-hydroxydiphenyl ether] | poor |  | 
Gentamicin sulfate |  | above 100 °C | stable

— patent publication US9381683B2, “Films and methods of manufacture” (priority 2011, dated 2016)
